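All cell lines were grown in 96-well plates and treated with compound for 48 hours. The concentration for 50% growth inhibition is given as GI50. TGI is the concentration that stops growth completely.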

Holding throughout (experiment): NCI-60 cell line screen, 48 h
Test [1] has as its system A549 NSCLC.
Test [2] deals with HCC-2998 colon.
In test [3] the test system is HCT-15 colon.
In test [4] the test system is MOLT-4 leukemia.
The test system of test [5] is NCI-H226 lung.
Test [6] deals with NCI-H460 lung.
In test [7] the test system is RPMI-8226 leukemia.
In test [8] the test system is RXF 393 renal.
The test system of test [9] is SF-268 CNS.
The test system of test [10] is SK-OV-3 ovarian.

Consider `CC(C)C[C@H](NC(=O)[C@H](CCc1ccccc1)NC(=O)c1ccc2ccccc2n1)B(O)O`, for which the TGI amounted to 13.4 µM in test [1]; 0.149 µM in test [2]; 0.52 µM in test [3]; 4.76 µM in test [4]; 0.367 µM in [5]; 2.47 µM in test [6]. Moreover, the TGI was more than 39.1 µM in test [7], less than 0.017 µM in [8], 0.397 µM in test [9] and 10.2 µM in test [10].
In the case of `CC1=CC(=O)/C(=C/N2CCNC2=S)C(=O)O1`, the TGI in test [1], in [2], in [3], in [4], in test [5] and in test [6] was more than 100 µM in each case. Moreover, the TGI in test [7], in [8], in [9] and in test [10] was more than 100 µM each time.
Take `COC1CCC(n2c([C@@H]3CCCC(=O)N3c3ccc(F)c(F)c3)nc3cc(-c4c(C)noc4C)ccc32)CC1` (stereo not given in full): the GI50 is 11.8 µM in [1]; 4.19 µM in [2]; 4.73 µM in test [3]; 16.9 µM in test [4]; 4.31 µM in test [5]; 26.3 µM in test [6]. The GI50 in test [7] was 0.703 µM; in [8] it was 4.82 µM; in [9], 14.6 µM; in test [10], 4.09 µM. Besides, the TGI in [1] is 69.5 µM; in test [2], 19.6 µM; in test [3], 38.3 µM; in test [4], 72.2 µM; in [5], 19.7 µM; in test [6], more than 100 µM. In addition, the TGI in [7] was found to be 8.21 µM; in test [8], 17.7 µM; in test [9], 56.4 µM; in test [10], 18.8 µM.
As to `CC12CCC(C1)C(C)(C)C2OC(=O)c1ccccc1C(=O)O` (stereo not given), the TGI in [1], in test [2], in test [3], in test [4], in test [5] and in [6] was more than 100 µM in each case. Also, the TGI in [7], in test [8], in test [9] and in test [10] was more than 100 µM throughout.
For `O=[N+]([O-])c1ccc(Cl)cc1N/N=C/c1cccs1`, the TGI in test [1], in test [2], in test [3], in test [4], in [5] and in [6] was more than 100 µM in each case. The TGI in [7], in test [8], in test [9] and in test [10] was more than 100 µM in each case.
Take `COC1=CCC2=C(CCN(C(=O)C3CCC3)C2Cc2ccc(OC)c(O)c2)C1` (stereo not given): the TGI in [1] is more than 100 µM; in [2] it was 41.3 µM; in [3] it was 25.1 µM; in test [4], more than 100 µM; in test [5], more than 100 µM; in [6], 31.1 µM. Besides, the TGI in [7] was more than 100 µM; in [8], 21.2 µM; in test [9], more than 100 µM; in [10], 83.5 µM.
On to `Cc1ccc(Nc2ccc(Nc3ccc(C)cc3S(=O)(=O)O)c3c2C(=O)c2ccccc2C3=O)c(S(=O)(=O)O)c1`, for which the TGI in test [1], in test [2], in test [3], in [4], in test [5] and in [6] was more than 100 µM throughout. For the same compound, the TGI in test [7], in test [8], in test [9] and in test [10] was more than 100 µM in each case.
In the case of `CN(C)/C=N/S(=O)(=O)c1nn2c(C=O)c(-c3cc4ccccc4oc3=O)nc2s1`, the TGI in [1] was more than 63.5 µM; in [2], 48.5 µM; in test [3], 27.6 µM; in test [4], more than 20.6 µM; in test [5] it was more than 56.5 µM; in test [6], more than 88.1 µM. Moreover, the TGI was 30.4 µM in test [7], 9.97 µM in test [8], more than 44.9 µM in [9] and more than 100 µM in test [10].
On to `O=C(c1ccccc1)n1[nH]c(=O)n(-c2ccc(Cl)cc2)c1=O`, for which the TGI in test [1], in [2], in test [3], in test [4], in test [5] and in [6] was more than 100 µM each time. Besides, the TGI in test [7], in test [8], in [9] and in test [10] was more than 100 µM each time.
As to `CC(C)=CCC/C(C)=C/CC/C(C)=C/CSc1ccc(Cl)cc1C(=O)O`, the TGI in [1] came to 30.3 µM; in test [2], 34.7 µM; in test [3], 34.7 µM; in test [4] it was 49.9 µM; in [5], 36.8 µM; in [6], 32.7 µM. In addition, the TGI in test [7] worked out at 55.6 µM; in [8] it was 44.6 µM; in test [9], 32.7 µM; in test [10], 31.1 µM.
Consider `CCOC(=O)/C=C1/Nc2cc(F)c(F)cc2NC1=O`, for which the TGI in test [1], in test [2], in test [3], in test [4], in [5] and in test [6] was more than 100 µM each time. Besides, the TGI in [7], in test [8], in test [9] and in test [10] was more than 100 µM each time.

The values are drawn from PubChem BioAssay (NCI).
